The source of these data is US6344457B1, “Amino acid derivatives inhibiting extracellular matrix metalloproteinase and TNF alpha release” (Chiesi Farmaceutici S.p.A., priority 1997, dated 2002).

In assay [1] the target is T1, 72 kDa gelatinase of human origin (Homo sapiens, UniProt P08253).
T1 sequence (P08253 110-660): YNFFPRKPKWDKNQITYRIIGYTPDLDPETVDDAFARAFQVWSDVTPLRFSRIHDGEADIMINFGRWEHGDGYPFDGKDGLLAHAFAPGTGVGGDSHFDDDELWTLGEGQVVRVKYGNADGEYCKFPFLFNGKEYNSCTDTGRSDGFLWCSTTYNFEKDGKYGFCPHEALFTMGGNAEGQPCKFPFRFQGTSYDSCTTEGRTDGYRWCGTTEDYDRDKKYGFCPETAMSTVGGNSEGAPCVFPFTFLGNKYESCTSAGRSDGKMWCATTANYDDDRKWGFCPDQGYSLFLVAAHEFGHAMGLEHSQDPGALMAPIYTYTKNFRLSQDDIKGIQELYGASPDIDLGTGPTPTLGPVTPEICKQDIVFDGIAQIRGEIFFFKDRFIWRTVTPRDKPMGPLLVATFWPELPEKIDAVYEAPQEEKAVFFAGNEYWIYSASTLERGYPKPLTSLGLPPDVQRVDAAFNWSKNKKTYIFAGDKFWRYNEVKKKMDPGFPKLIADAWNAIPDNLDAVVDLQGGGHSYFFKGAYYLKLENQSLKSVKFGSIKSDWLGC
The experiment in a line: Activity on gelatinase, synthetic substrate. The format is biochemical. To be noted: performed on synthetic substrate; read-out: C150 (nM) gelatinase 72 kDa**. As to the method:
The anti-gelatinase activity of the compounds according to the invention was determined on 72 kDa gelatinase of human origin, in accordance with the operating mode described by Knight, C. G., Willenbrock, F., Murphy, G. (FEBS Letters, 296 (3), 263-266, 1992).
The gelatinase was incubated at 37° C. for 10 minutes, and its activity was determined by the increase in fluorescence of the product of Mca-Pro-Leu breakdown of the Mca-Pro-Leu-Gly-Leu-Dpa-Ala-Arg-NH2 synthetic substrate.
The inhibiting concentration C150 for each compound was determined by measurement of the activity of the enzyme in the presence of the inhibitor at a concentration ranging between 10^−7 and 10^−12 M (the inhibitor is dissolved at a concentration of 10^−2 M in DMSO, then diluted successively by tenths in DMSO to 10^−4 M, then in the buffer: Tris, HCl 50 mM+0.05% Brij 35; CaCl2 10 mM; NaCl 0.15 M).

In assay [2] the test system is release of TNF from the peritoneal macrophages of mice stimulated by LPS. As to the kind of experiment: Inhibition of the production of TNF in vitro. It is filed as cell-based. To be noted: mouse peritoneal macrophages, LPS 100 ng/ml, read-out: C150 (μM) TNF. The method, then:
The capacity of the compounds according to this invention to inhibit the release of TNF was determined from the peritoneal macrophages of mice stimulated by LPS (Lang, F., Robert, […], Petit, J. Y., J. Pharmacol. Exp. Ther., 275, 171-176, 1995). After an adhesion phase of 2 hours, the cells were treated for 1 hour with the compound to be tested at concentrations ranging between 10^-6 to 10^-9 M (the inhibitor is dissolved in DMSO at 10^-2 M, then at 5.10^-3 M in RPMI 1640 with 5% SVF, then diluted successively by tenths in the same medium), then stimulated by the addition of LPS (100 ng/ml in final concentration). Three hours later, the biological activity of the TNF in the supernatants was determined by a cytotoxicity test using the murine stock L929 in accordance with the operating procedure described by Band, G., Lin, […]., Evans, C. H. (Bioch. Biophys. Acta, 1134, 309-318, 1982). The pg/ml concentration of the TNF of the samples was determined from a murine αTNF standard curve, thus making it possible to define the inhibiting concentration […] of the compounds studied.

Assay [3] concerns the target 92 kDa gelatinase of human origin (Homo sapiens, UniProt P14780). As to the kind of experiment: Activity on gelatinase, radiomarked gelatin. To be noted: for IC50: test performed with radiomarked gelatin, read-out: C150 (nM) gelatinase 92 kDa*; for gelatinase 92 kDa* (in %): radiomarked gelatin, concentration not given. The format is biochemical. As to the method:
The anti-gelatinase activity of the compounds according to the invention also was determined on 92 kDa or 72 kDa gelatinase of human origin, in accordance with the operating mode described by Harris, E. D., Krane, S. M.; (Biochem. Biophys. Acta, 258, 566-576, 1972).
The gelatinase was incubated at 37° C. for 16 hours with radiomarked gelatin, and its activity was determined by the release of the soluble peptides produced by the enzymatic breakdown of the gelatin. The inhibiting concentration C150 for each compound was determined by measurement of the activity of the enzyme in the presence of the inhibitor at a concentration ranging between 10^−7 and 10^−12 M (the inhibitor is dissolved in the same manner as for collagenase).

Assay [4] has as its target T2, collagenase of the human monocytic stock U937 (Homo sapiens, UniProt P03956).
T2 construct: the collagenase of the human monocytic stock U937; endogenous in cells; host or cells: U937 human monocytic cell line
T2 sequence (P03956 100-469): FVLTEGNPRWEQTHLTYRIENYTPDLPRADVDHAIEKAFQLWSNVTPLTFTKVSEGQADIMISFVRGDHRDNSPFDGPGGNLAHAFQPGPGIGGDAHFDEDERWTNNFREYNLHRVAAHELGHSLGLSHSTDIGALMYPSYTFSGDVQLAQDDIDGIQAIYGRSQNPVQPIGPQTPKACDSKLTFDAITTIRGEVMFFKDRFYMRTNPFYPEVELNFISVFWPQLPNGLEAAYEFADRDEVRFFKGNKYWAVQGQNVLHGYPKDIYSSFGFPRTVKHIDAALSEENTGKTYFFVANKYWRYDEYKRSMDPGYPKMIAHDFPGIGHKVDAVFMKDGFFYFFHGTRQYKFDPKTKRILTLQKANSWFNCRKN
As to the kind of experiment: Activity on collagenase. The format is biochemical. To be noted: radiomarked collagen, 27° C., 16 hours; read-out: C150 (nM) collagenase. As to the method:
The collagenase was incubated at 27° C. for 16 hours with radiomarked collagen, and its activity was determined by the release of soluble peptides produced by the enzymatic breakdown of the collagen. The inhibiting concentration C150 for each compound was determined by measurement of the activity of the enzyme in the presence of the inhibitor at a concentration ranging between 10^−7 and 10^−12 M (the inhibitor is dissolved at a concentration of 10^−2 M in DMSO, then diluted successively by tenths in the buffer: Tris, HCl 150 mM, pH 7.5; NaCl 0.15 M; CaCl2 10 mM).

Like-named read-outs stand apart in the source and are kept apart here.

92 kDa gelatinase of human origin, sequence (P14780 94-707): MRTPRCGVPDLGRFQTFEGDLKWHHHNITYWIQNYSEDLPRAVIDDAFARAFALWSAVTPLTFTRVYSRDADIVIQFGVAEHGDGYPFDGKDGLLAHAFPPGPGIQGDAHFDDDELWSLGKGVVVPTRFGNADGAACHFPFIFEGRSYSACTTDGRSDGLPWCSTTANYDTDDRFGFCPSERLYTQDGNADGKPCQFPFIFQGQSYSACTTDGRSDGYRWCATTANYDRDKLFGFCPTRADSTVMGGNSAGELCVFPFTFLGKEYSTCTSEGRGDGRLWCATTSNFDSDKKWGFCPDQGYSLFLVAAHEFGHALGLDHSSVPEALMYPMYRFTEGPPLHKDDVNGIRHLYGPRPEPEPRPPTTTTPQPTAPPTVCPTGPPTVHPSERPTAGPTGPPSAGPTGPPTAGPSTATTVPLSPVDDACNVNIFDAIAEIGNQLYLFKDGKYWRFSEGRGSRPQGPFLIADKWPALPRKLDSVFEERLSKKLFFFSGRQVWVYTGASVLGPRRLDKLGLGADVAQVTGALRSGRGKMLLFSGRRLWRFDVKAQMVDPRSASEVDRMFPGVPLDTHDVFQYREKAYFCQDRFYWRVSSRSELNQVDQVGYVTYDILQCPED

Take `CCC[C@H](C(=O)NO)[C@@](O)(CC(C)C)C(=O)N[C@@H](Cc1ccc(Cl)cc1)C(=O)NC` [Example 17, N-2(S) hydroxy 3(S) hydroxycarbamoyl 2(S) 1(2-methyl) propyl hexanoyl L-4-chlorophenylalanine N-methyl amide]: the IC50 in assay [1] came out at 1.6 nM; in assay [2] (Peritoneal macrophage), 0.27 µM; in assay [3], 1.6 nM.
In the case of `CC(C)C[C@@](O)(C(=O)N[C@@H](Cc1ccc(Cl)c(Cl)c1)C(=O)NCCN1CCOCC1)[C@H](C)C(=O)NO` [Example 35b], the IC50 is 4 nM in assay [4], 0.3 µM in assay [2] (Peritoneal macrophage) and 1.1 nM in assay [3].
Consider `CNC(=O)[C@H](Cc1ccc(Cl)c(Cl)c1)NC(=O)[C@@](O)(CS)CC(C)C` [Example 37], for which the IC50 is greater than 1000 nM in assay [4], 2 µM in assay [2] (Peritoneal macrophage) and 70 nM in assay [3].
As for `CC(C)C[C@@](O)(C(=O)N[C@@H](Cc1ccc(Cl)c(Cl)c1)C(=O)NCCOCCO)[C@H](C)C(=O)NO` [Example 19, N-2(S)[1(S)hydroxycarbamoyl-1 ethyl]-2 (S) hydroxy 4-methylpentanoyl L-3,4 dichlorophenylalanine N-hydroxyethyloxyethylamide], the IC50 in assay [1] is 0.7 nM; in assay [4], 7 nM; in assay [2] (Peritoneal macrophage) it was 0.5 µM; in assay [3] it was 0.001 nM.
As to `CNC(=O)[C@H](Cc1ccc(OC)cc1)NC(=O)[C@](O)(CC(C)C)[C@H](C)S` [Example 36, N-2(R)-[(1-thioethyl)] 2(R) hydroxy 4-methyl pentanoyl-o-methyl-L-tyrosine methylamide], the results for the IC50 in assay [4], in assay [2] (Peritoneal macrophage) and in assay [3] were 500 nM, 3 µM and 23 nM, respectively.
With `COCCOCCNC(=O)[C@H](Cc1ccc(Cl)c(Cl)c1)NC(=O)[C@](O)(CC(C)C)[C@H](C)C(=O)NO` [Example 23, N-2(S) [1(S) hydroxycarbamoyl-1 ethyl]-2(S) hydroxy 4-methyl pentanoyl L-3,4-dichlorophenylalanine N-(2-(2-methoxyethoxy)1-ethyl)amide], the IC50 stood at 0.14 nM in assay [1] and 0.37 µM in assay [2] (Peritoneal macrophage). Further, the “gelatinase 92 kDa* (in %)” value in assay [3] was 60%.
Take `CNC(=O)[C@H](Cc1ccc(Cl)cc1Cl)NC(=O)[C@](O)(CC(C)C)[C@H](C)C(=O)NO` [Example 20, N-2(S)[1(S)hydroxycarbamoyl-1 ethyl]-2 (S) hydroxy 4-methylpentanoyl L-2,4-dichlorophenylalanine N-methylamide]: the IC50 in assay [1] worked out at 1.6 nM; in assay [4], 3.7 nM; in assay [2] (Peritoneal macrophage), 1 µM; in assay [3], 0.2 nM.
Take `CNC(=O)[C@H](Cc1cccc(Cl)c1)NC(=O)[C@](O)(CC(C)C)[C@H](C)C(=O)NO` [Example 22, N-2(S)-[1(S) hydroxycarbamoyl-1 ethyl]-2(S) hydroxy-4-methylpentanoyl L-3-chlorophenylalanine N-methylamide]: the IC50 in assay [4] came out at 2.4 nM; in assay [2] (Peritoneal macrophage), 0.13 µM.
With `CNC(=O)[C@H](Cc1c[nH]c2ccccc12)NC(=O)[C@](O)(CC(C)C)[C@H](C)C(=O)NO` [Example 26, N-2-(S)[1(S) hydroxycarbamoyl-1 ethyl]-2(S)hydroxy-4-methylpentanoyl L-tryptophan N-methylamide], the IC50 in assay [2] (Peritoneal macrophage) came to 4.4 µM; in assay [3] it was 0.6 nM.
For the compound `CNC(=O)[C@H](Cc1ccc(OC)cc1)NC(=O)[C@](O)(CC(C)C)C(C)N(O)C=O` (mixture of isomers) [Example 38, N-2(S)-[1(N-hydroxy-N-formyl)ethyl]2(S)-hydroxy4-methylpentanoyl-o-methyl L-tyrosine methylamide], the IC50 in assay [4] was 130 nM; in assay [2] (Peritoneal macrophage) it was 3.2 µM; in assay [3], 17 nM.
For the compound `CNC(=O)[C@H](Cc1ccc(Cl)c(Cl)c1)NC(=O)[C@](O)(CCCc1ccccc1)[C@H](C)C(=O)NO` [Example 33, N-2-(S)[1(S)(hydroxycarbamoyl)ethyl]2(S) hydroxy 5-phenylpentanoyl L-3,4-dichlorophenylalanine N-methylamide], the results for the IC50 in assay [1], in assay [4] and in assay [2] (Peritoneal macrophage) were 0.01 nM, 225 nM and 0.58 µM, respectively. The “gelatinase 92 kDa* (in %)” value in assay [3] stood at 86%.
`C[C@H](C(=O)NO)[C@@](O)(CCCc1ccccc1)C(=O)N[C@@H](CC1CCCCC1)C(=O)NCCc1ccccc1` [Example 32, N-2-(S)[1(S)(hydroxycarbamoyl)ethyl]2(S) hydroxy 5-phenyl pentanoyl L-3-cyclohexylalanine 2 phenylethylamide]: the results for the IC50 in assay [1], in assay [2] (Peritoneal macrophage) and in assay [3] were 0.8 nM, greater than 1 µM and 1.9 nM, respectively.
For the compound `CSCCNC(=O)[C@H](Cc1ccc(Cl)c(Cl)c1)NC(=O)[C@](O)(CC(C)C)[C@H](C)C(=O)NO` [Example 21, N-2(S)[1(S)hydroxycarbamoyl-1 ethyl]-2(S) hydroxy-4-methylpentanoyl L-3,4-dichlorophenylalanine N-(2-methylthio-1-ethyl) amide], the values for the IC50 in assay [4] and in assay [2] (Peritoneal macrophage) were 5 nM and 0.4 µM, respectively. The “gelatinase 92 kDa* (in %)” value in assay [3] was determined as 83%.
For `CNC(=O)[C@H](Cc1ccc(OC)cc1)NC(=O)[C@](O)(C(C)C)[C@H](C)C(=O)NO` [Example 7, N-2(S) [-1-(S) hydroxycarbamoyl 1(S)ethyl] 2(S) hydroxy-3 methyl butanoyl O-methyltyrosine N-methylamide], the IC50 in assay [1] stood at 18 nM; in assay [4], 30 nM; in assay [2] (Peritoneal macrophage) it was 2 µM; in assay [3], 17 nM.
Regarding “N-2(S)[1(S)-hydroxycarbamoyl-1 (S) ethyl]-2 (S)-hydroxy-4-methyl pentanoyl L-(3,4)-dichlorophenylalanine N-(2-(4-morpholino)1-ethyl) amide [Example 35a]”, the IC50 in assay [4] was 6 nM; in assay [2], 0.86 µM; in assay [3] it was 0.38 nM.
